We go through 26 compounds from ChEMBL document CHEMBL2407081, “Discovery of potent, isoform-selective inhibitors of histone deacetylase containing chiral heterocyclic capping groups and a N-(2-aminophenyl)benzamide binding unit” (J Med Chem, 2013).

The target of one test is Histone deacetylase 2 (Homo sapiens, UniProt Q92769). The test can be described thus: Inhibition of recombinant His-tagged HDAC2 (1 to 488) (unknown origin) using MAL as substrate incubated for 3 hrs prior to substrate addition measured after 60 mins by fluorescence plate reader analysis.
Sequence of Histone deacetylase 2 (Q92769 whole entry): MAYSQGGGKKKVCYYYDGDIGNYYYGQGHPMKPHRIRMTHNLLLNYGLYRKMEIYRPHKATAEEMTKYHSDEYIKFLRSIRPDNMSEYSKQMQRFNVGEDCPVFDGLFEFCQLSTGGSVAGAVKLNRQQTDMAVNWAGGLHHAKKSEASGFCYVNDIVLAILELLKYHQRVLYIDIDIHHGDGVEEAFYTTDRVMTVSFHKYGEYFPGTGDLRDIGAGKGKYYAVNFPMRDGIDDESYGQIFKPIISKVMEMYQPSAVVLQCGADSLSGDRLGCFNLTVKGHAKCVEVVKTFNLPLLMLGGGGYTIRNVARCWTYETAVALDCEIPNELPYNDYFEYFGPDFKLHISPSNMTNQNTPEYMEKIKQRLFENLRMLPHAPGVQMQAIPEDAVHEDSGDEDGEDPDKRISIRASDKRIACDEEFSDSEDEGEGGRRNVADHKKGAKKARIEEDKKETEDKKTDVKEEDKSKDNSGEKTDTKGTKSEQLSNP
A further test has as its target Histone deacetylase 1 (Homo sapiens, UniProt Q13547). The test can be described thus: Inhibition of recombinant C-terminal FLAG-tagged HDAC1 (unknown origin) expressed in Escherichia coli BL21 using MAL as substrate incubated for 1 hr prior to substrate addition measured after 60 mins by fluorescence plate reader analysis.
In test [1] the target is T1, Protein deacetylase HDAC6 (Homo sapiens, UniProt Q9UBN7).
T1 sequence (Q9UBN7 whole entry): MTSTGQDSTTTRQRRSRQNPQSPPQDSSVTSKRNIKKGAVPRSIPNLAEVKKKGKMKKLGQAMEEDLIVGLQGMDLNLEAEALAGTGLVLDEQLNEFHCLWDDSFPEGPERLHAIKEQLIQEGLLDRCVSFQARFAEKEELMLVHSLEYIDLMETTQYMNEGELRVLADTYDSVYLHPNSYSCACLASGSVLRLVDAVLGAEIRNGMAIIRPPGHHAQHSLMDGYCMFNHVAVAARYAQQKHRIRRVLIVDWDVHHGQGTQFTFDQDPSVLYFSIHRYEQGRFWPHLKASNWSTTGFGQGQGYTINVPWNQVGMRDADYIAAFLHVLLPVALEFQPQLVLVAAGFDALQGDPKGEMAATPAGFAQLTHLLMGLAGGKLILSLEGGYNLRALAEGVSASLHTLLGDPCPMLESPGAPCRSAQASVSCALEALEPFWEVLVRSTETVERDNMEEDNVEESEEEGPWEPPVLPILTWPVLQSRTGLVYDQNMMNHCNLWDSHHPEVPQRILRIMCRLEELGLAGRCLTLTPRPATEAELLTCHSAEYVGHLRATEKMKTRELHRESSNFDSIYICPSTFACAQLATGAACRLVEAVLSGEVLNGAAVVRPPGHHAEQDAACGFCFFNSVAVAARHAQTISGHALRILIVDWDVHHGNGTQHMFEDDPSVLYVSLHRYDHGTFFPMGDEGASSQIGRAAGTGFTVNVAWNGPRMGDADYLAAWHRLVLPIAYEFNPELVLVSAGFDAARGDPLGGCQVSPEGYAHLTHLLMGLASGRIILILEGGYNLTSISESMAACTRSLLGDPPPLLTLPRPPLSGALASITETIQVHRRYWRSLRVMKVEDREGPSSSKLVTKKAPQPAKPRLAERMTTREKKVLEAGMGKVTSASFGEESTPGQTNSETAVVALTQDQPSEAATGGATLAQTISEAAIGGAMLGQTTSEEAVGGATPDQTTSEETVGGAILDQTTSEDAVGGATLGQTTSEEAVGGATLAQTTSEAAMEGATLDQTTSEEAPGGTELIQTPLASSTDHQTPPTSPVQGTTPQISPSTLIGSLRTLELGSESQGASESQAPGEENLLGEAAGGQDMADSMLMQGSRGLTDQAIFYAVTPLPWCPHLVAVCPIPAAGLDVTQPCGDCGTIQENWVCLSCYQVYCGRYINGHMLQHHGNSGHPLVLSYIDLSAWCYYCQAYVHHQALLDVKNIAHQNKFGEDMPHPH
The test can be described thus: Inhibition of recombinant His-tagged HDAC6 (unknown origin) using Fluor-de-Lys SIRT1 as substrate incubated for 3 hrs prior to substrate addition measured after 60 mins by fluorescence plate reader analysis.

The target of test [2] is Histone deacetylase 3/NCoR1 (Homo sapiens, UniProt O15379). The test can be described thus: Inhibition of recombinant HDAC3-NCoR1 (unknown origin) using MAL as substrate incubated for 3 hrs prior to substrate addition measured after 60 mins by fluorescence plate reader analysis. Type of test: protein-complex assay.
Sequence of Histone deacetylase 3/NCoR1 (O15379 whole entry): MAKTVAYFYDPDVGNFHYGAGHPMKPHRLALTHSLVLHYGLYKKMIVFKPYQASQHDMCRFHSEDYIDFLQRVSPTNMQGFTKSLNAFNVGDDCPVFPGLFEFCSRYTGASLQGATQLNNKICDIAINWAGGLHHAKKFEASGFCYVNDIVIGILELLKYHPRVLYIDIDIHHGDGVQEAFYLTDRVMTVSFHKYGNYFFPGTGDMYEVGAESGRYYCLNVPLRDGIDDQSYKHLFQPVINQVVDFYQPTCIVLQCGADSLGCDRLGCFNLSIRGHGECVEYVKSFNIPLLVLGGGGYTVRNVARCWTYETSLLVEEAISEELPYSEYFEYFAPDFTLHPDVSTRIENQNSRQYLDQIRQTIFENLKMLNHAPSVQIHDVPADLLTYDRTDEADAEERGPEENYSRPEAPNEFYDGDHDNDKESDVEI
Sequence of Histone deacetylase 3/NCoR1 (O75376 whole entry, further chain): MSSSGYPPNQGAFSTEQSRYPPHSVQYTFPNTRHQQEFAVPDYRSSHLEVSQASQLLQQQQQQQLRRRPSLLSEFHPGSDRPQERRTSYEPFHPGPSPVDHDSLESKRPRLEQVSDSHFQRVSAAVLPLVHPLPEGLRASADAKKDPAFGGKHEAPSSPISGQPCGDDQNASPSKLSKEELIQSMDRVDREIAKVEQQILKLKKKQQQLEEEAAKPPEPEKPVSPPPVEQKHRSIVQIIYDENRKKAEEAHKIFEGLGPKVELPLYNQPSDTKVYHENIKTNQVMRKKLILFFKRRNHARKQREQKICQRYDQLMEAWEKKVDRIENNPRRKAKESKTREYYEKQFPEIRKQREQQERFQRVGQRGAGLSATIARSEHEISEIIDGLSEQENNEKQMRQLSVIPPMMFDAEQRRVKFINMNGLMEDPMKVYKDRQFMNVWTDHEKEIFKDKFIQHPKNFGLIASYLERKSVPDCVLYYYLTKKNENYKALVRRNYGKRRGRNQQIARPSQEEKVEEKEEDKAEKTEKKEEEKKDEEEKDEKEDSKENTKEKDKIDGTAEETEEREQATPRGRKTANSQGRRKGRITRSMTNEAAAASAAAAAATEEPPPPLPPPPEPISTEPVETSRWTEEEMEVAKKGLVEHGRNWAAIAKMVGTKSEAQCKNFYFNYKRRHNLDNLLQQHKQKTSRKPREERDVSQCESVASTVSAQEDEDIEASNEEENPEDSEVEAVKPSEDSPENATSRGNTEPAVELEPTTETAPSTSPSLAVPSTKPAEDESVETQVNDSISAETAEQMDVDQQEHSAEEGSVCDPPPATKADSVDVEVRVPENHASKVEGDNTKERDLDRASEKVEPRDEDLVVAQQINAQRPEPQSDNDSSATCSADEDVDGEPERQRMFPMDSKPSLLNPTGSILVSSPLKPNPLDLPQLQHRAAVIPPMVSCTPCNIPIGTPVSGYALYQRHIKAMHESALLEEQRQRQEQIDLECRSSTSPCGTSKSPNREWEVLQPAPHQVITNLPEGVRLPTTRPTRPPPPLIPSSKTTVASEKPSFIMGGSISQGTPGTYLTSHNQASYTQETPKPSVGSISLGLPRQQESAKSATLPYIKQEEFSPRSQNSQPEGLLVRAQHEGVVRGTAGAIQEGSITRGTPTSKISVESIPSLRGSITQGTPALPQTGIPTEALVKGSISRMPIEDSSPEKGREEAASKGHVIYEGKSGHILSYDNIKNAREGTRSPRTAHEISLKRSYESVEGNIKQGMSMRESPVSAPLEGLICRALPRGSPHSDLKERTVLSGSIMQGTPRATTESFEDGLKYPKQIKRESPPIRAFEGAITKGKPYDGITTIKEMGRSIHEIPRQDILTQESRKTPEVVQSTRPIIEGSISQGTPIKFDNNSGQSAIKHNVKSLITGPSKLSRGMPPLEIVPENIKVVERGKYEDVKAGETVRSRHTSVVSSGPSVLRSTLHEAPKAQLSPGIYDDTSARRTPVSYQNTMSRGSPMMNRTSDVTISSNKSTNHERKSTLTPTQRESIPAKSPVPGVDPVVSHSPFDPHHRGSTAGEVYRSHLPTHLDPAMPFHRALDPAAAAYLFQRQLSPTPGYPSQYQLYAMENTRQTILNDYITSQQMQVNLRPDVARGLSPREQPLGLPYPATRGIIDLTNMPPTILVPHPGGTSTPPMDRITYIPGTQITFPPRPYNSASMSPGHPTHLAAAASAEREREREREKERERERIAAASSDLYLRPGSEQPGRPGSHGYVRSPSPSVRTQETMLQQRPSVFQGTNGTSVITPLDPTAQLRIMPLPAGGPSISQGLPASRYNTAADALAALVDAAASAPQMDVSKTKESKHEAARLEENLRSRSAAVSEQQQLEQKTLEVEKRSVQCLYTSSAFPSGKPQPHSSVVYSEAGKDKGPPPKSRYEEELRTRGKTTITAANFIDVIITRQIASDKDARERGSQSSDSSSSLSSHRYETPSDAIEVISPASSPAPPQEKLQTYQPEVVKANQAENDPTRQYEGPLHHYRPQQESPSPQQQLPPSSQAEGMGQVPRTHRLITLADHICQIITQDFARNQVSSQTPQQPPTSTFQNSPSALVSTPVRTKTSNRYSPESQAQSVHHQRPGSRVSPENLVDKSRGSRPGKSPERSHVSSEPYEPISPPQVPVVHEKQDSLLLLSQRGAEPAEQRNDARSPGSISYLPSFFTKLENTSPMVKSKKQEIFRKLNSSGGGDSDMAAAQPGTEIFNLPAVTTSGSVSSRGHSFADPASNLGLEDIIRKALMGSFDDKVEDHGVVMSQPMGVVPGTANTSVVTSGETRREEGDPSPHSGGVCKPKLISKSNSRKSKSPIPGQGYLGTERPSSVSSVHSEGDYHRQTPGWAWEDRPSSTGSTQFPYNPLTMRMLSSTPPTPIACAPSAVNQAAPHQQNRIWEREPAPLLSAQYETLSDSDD
For the next test, the target named is T2, Histone deacetylase 8 (Homo sapiens, UniProt Q9BY41).
T2 sequence (Q9BY41 whole entry): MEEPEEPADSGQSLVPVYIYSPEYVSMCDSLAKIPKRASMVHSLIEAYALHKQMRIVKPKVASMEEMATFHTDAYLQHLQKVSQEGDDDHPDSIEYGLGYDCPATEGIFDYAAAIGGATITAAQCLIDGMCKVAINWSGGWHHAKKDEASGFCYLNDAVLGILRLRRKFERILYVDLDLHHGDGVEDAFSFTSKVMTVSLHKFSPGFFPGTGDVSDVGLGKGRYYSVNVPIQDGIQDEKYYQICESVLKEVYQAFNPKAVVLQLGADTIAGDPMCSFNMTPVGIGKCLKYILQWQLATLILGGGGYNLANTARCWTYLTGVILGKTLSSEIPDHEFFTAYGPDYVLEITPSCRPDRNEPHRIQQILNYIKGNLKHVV
The test can be described thus: Inhibition of recombinant HDAC8 (unknown origin) expressed in Escherichia coli BL21 using MAL as substrate incubated for 15 mins prior to substrate addition measured after 60 mins by fluorescence plate reader analysis.

The subject of the next test is DU-145. The test can be described thus: Cytotoxicity against human DU145 cells assessed as growth inhibition by measuring cellular ATP level after 72 hrs by cell-titer glo assay. Type of test: functional, cell-based. To be noted: DU-145, 72 h.
The test system of the next test is A549. The test can be described thus: Cytotoxicity against human A549 cells assessed as growth inhibition by measuring cellular ATP level after 72 hrs by cell-titer glo assay. Type of test: functional, cell-based. To be noted: A549, 72 h.
The next test deals with MCF7. The test can be described thus: Cytotoxicity against human MCF7 cells assessed as growth inhibition by measuring cellular ATP level after 72 hrs by cell-titer glo assay. The note with it: MCF7, 72 h. Type of test: functional, cell-based.
The test system of a further test is HCT-116. The test can be described thus: Cytotoxicity against human HCT116 cells assessed as growth inhibition by measuring cellular ATP level after 72 hrs by cell-titer glo assay. Type of test: functional, cell-based. To be noted: HCT-116, 72 h.

Structures are written as SMILES.

Sequence of Histone deacetylase 1 (Q13547 whole entry): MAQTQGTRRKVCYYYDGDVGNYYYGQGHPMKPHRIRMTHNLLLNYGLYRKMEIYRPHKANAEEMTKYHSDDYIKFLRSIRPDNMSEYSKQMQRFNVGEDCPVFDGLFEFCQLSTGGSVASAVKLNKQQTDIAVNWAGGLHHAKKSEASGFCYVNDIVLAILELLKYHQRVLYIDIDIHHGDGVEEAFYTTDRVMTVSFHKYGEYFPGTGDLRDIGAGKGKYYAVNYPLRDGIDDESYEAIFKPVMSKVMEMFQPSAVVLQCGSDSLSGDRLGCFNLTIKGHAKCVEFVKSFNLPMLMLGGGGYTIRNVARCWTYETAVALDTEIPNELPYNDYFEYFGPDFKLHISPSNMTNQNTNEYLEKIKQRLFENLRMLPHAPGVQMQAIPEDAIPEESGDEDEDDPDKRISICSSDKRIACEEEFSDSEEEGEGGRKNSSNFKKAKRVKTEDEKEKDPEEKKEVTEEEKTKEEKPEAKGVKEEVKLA

In the case of `Nc1ccccc1NC(=O)c1ccc(CN=C2N[C@H](c3ccccc3)CS2)cc1`, the IC50 (in general, the midpoint of a concentration-inhibition curve) is 0.056 µM on Histone deacetylase 2; 0.37 µM at Histone deacetylase 1; more than 20 µM in test [1]; 0.079 µM in test [2]; 10.7 µM on Histone deacetylase 8.
Consider `CC(=O)N1C(NCc2ccc(C(=O)Nc3ccccc3N)cc2)=NC(=O)C1Cc1ccccc1` (racemic), for which the IC50 on Histone deacetylase 2 was 0.26 µM; in test [1], more than 20 µM; in test [2], 0.083 µM; at Histone deacetylase 8, 22.7 µM.
Turning to `Nc1cc(C(=O)OCc2ccccc2)ccc1NC(=O)c1ccc(CNc2nccc(-c3cccnc3)n2)cc1`, the IC50 (at Histone deacetylase 2; in test [1]; in [2]; at Histone deacetylase 8) was more than 20 µM in each case.
For the compound `Nc1ccccc1NC(=O)c1ccc(CNC2=NC(=O)C(Cc3ccccc3)N2)cc1` (racemic), the IC50 on Histone deacetylase 2 was 0.066 µM; in the test with DU-145 it was more than 50 µM; in the test on A549, more than 50 µM; in test [1], more than 20 µM; in test [2], 0.03 µM; on Histone deacetylase 8, 13 µM. In addition, the IC50 in the test with MCF7 was more than 50 µM; with HCT-116, 16.6 µM.
Regarding `CC(C)(C)[Si](C)(C)OCc1ccc(NC(=O)c2ccc(CNc3nccc(-c4cccnc4)n3)cc2)c(N)c1`, the IC50 (on Histone deacetylase 2; in [1]; in [2]; on Histone deacetylase 8) was more than 20 µM in each case.
As to `Nc1ccccc1NC(=O)c1ccc(CN=C2NC[C@H](c3ccccc3)S2)cc1`, the IC50 at Histone deacetylase 2 is 0.081 µM; at Histone deacetylase 1 it was 0.55 µM; in [2], 0.012 µM; on Histone deacetylase 8, 2.3 µM.
`COc1ccc(NC(=O)c2ccc(CNc3nccc(-c4cccnc4)n3)cc2)c(N)c1`: the IC50 at Histone deacetylase 2 is 0.248 µM; in test [1], more than 20 µM; in [2], 0.111 µM; on Histone deacetylase 8, more than 20 µM.
As to `Nc1cc2ccccc2cc1NC(=O)c1ccc(CNc2nccc(-c3cccnc3)n2)cc1`, the IC50 at Histone deacetylase 2 was more than 20 µM; in test [1], more than 20 µM; in [2], 0.63 µM; at Histone deacetylase 8, more than 20 µM.
As to `Nc1ccccc1NC(=O)c1ccc(CSC2=N[C@@H](c3ccccc3)CS2)cc1`, the IC50 at Histone deacetylase 2 was 0.44 µM; in [1], more than 20 µM; in [2] it was 0.063 µM; on Histone deacetylase 8 it was 5.16 µM.
On the same counts, the results for `Nc1cc(-c2ccccc2)ccc1NC(=O)c1ccc(CNc2nccc(-c3cccnc3)n2)cc1` are 16.7 µM, more than 20 µM, more than 20 µM and more than 20 µM.
Turning to `Nc1ccccc1NC(=O)c1ccc(CN=C2N[C@H](Cc3ccccc3)CS2)cc1`, the IC50 on Histone deacetylase 2 was 0.082 µM; on Histone deacetylase 1 it was 0.41 µM; in [1], more than 20 µM; in test [2] it was 0.036 µM; on Histone deacetylase 8, 12.7 µM.
Turning to `Nc1ccccc1NC(=O)c1ccc(CNC2=NC[C@@H](c3ccccc3)S2)cc1`, the values for the IC50 (at Histone deacetylase 2; in [2]; on Histone deacetylase 8) were 0.111 µM, 0.023 µM and 1.4 µM, respectively.
Take `Nc1ccccc1NC(=O)c1ccc(CSC2=N[C@@H](Cc3ccccc3)CS2)cc1`: the IC50 at Histone deacetylase 2 was 0.58 µM; in test [1], more than 20 µM; in [2] it was 0.509 µM; on Histone deacetylase 8, more than 20 µM.
As to `Nc1ccccc1NC(=O)c1ccc(CNC2=N[C@@H](Cc3ccccc3)CS2)cc1`, the IC50 was 0.104 µM on Histone deacetylase 2; 0.92 µM at Histone deacetylase 1; 5.45 µM in the test on DU-145; 6.37 µM in the test with A549; more than 20 µM in [1]; 0.052 µM in [2]. Besides, the IC50 was determined as 34.9 µM at Histone deacetylase 8, 3.09 µM with MCF7 and 1.95 µM in the test with HCT-116.
Consider `CC(=O)N1C(NCc2ccc(C(=O)Nc3ccccc3N)cc2)=NC(=O)C1Cc1c[nH]c2ccccc12` (racemic), for which the IC50 at Histone deacetylase 2 was 0.116 µM; in [1], more than 20 µM; in test [2], 0.07 µM; on Histone deacetylase 8, 24.3 µM.
`O=C(CCCCCCC(=O)Nc1ccccc1)NO` [VORINOSTAT]: the figures for the IC50 in the test on A549 and with MCF7 were 2.27 µM and 2.29 µM, respectively.
Regarding `CC(C)(C)OC(=O)N1C(NCc2ccc(C(=O)Nc3ccccc3N)cc2)=NC(=O)C1Cc1c[nH]c2ccccc12` (racemic), the IC50 is 0.048 µM at Histone deacetylase 2; 0.5 µM at Histone deacetylase 1; more than 20 µM in [1]; 0.04 µM in test [2]; 27.2 µM at Histone deacetylase 8.
As for `Nc1ccccc1NC(=O)c1ccc(CN=C2N[C@@H](c3ccccc3)[C@H](c3ccccc3)S2)cc1`, the IC50 was 0.538 µM on Histone deacetylase 2, 0.388 µM in test [2] and 12.6 µM at Histone deacetylase 8.
Regarding `Nc1cc(O)ccc1NC(=O)c1ccc(CNc2nccc(-c3cccnc3)n2)cc1`, the IC50 on Histone deacetylase 2 is 1.43 µM; in test [1], more than 20 µM; in [2], 0.719 µM; on Histone deacetylase 8 it was more than 20 µM.
Take `Nc1ccccc1NC(=O)c1ccc(CSC2=N[C@@H](Cc3c[nH]c4ccccc34)CS2)cc1`: the IC50 at Histone deacetylase 2 is 0.92 µM; in the test with DU-145 it was 2.8 µM; in the test with A549 it was 9.53 µM; in [1] it was more than 20 µM; in [2], 0.89 µM; at Histone deacetylase 8, more than 20 µM. Besides, the IC50 with MCF7 amounted to 9.91 µM; in the test with HCT-116, 3.64 µM.
In the case of `Nc1cc(CO)ccc1NC(=O)c1ccc(CNc2nccc(-c3cccnc3)n2)cc1`, the IC50 (on Histone deacetylase 2; in test [1]; in test [2]; at Histone deacetylase 8) was more than 20 µM each time.
With `Nc1ccccc1NC(=O)c1ccc(CNC2=N[C@@H](c3ccc(O)cc3)CS2)cc1`, the IC50 on Histone deacetylase 2 stood at 0.044 µM; on Histone deacetylase 1 it was 0.18 µM; in test [2], 0.016 µM; at Histone deacetylase 8, 15 µM.
For `Nc1ccccc1NC(=O)c1ccc(CNC2=NC(=O)C(Cc3c[nH]c4ccccc34)N2)cc1` (racemic), the IC50 on Histone deacetylase 2 was 0.078 µM; at Histone deacetylase 1, 0.19 µM; in test [1], more than 20 µM; in test [2], 0.104 µM; on Histone deacetylase 8, more than 20 µM.
On to `Nc1ccccc1NC(=O)c1ccc(CNC2=N[C@H](c3ccccc3)[C@@H](c3ccccc3)S2)cc1`, for which the IC50 stood at 0.425 µM on Histone deacetylase 2, 0.287 µM in test [2] and 14.9 µM on Histone deacetylase 8.
In the case of `Nc1cc(C(=O)O)ccc1NC(=O)c1ccc(CNc2nccc(-c3cccnc3)n2)cc1`, the IC50 (at Histone deacetylase 2; in test [1]; in [2]; at Histone deacetylase 8) was more than 20 µM in each case.
For `Nc1cc(Br)ccc1NC(=O)c1ccc(CNc2nccc(-c3cccnc3)n2)cc1`, the IC50 at Histone deacetylase 2 was more than 20 µM; in test [1], more than 20 µM; in [2], 4.72 µM; on Histone deacetylase 8, more than 20 µM.
